# Source: US6271234A, “1,4-disubstituted piperazines” (Recordati S.A., Chemical and Pharmaceutical Company, priority 1997, dated 2001)
# Assays:
# [1] = target: T1, human 5-HT1A -serotoninergic receptor (Homo sapiens, UniProt P08908); test: Radioreceptor binding to recombinant 5-HT1A receptors ([3H]8-OH-DPAT, HeLa cell membranes); conditions: [3H]8-OH-DPAT 0.2-1 nM, 30 min at 30° C., read-out: Binding affinity for the 5-HT1A receptor, Ki
# T1 construct: expressed in transfected cells; host or cells: HeLa (human cell line), stably transfected; cell membranes
# T1 sequence (P08908 1-422): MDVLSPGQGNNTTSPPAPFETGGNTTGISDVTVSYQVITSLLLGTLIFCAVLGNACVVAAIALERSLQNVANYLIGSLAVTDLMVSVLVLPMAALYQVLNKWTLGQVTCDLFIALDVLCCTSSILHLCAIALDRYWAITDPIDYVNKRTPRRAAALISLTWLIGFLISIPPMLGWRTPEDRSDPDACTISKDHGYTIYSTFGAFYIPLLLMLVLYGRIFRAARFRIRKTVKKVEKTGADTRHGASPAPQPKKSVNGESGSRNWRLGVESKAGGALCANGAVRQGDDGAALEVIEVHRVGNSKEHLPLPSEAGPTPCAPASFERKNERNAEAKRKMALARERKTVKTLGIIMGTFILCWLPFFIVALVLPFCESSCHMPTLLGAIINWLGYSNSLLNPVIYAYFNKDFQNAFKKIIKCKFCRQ
# Experimental: HeLa cells were grown as monolayers in Dulbecco's modified Eagle's medium (DMEM), supplemented with 10% fetal calf serum and gentamicin ([…]), 5% CO2 at 37° C. Cells were detached from the growth flash at 95% confluence by a cell scraper and were lysed in ice-cold 5 mM Tris and 5 mM EDTA buffer (pH 7.4). Homogenates were centrifuged at 40000×g×20 min and pellets were resuspended in a small volume of ice-cold 5 mM Tris 5 and 5 mM EDTA buffer (pH 7.4) and immediately frozen and stored at -70° C. until use. On the day of experiment, cell membranes were resuspended in binding buffer: 50 mM Tris HCl (pH 7.4), 2.5 mM MgCl2, […] (Fargin et al., Nature 335, 358-360, 1988). Membranes were incubated in a final volume of 1 ml for 30 min at 30° C. with 0.2-1 nM [^3 H]8-OH-DPAT, in absence or presence of competing drugs; non-specific binding was determined in the presence of […]. The incubation was stopped by addition of ice-cold Tris-HCl buffer and rapid filtration through 0.2% polyethyleneimine pretreated Whatman GF/B or Schleicher & Schuell GF52 filters.
# [2] = test system: rhythmic bladder voiding contractions; test: Effects on volume-induced rhythmic bladder voiding contractions in anaesthetized rats; type: in vivo, Female Sprague Dawley rats; conditions: for Bladder Quiescence (disappearance time of contractions): mean ± S.E.
# Experimental: The animals were housed with free access to food and water and were maintained on a forced 12 h alternating light-dark cycle at 22-24° C. for at least one week, except during the experiment. […] The catheter was tied in place with a ligature around the external urethral orifice and was connected with conventional pressure transducers (Statham P23 ID/P23 XL). […] The bladder was then filled via the recording catheter by incremental volumes of warm (37° C.) saline until reflex bladder voiding contractions occurred (usually 0.8-1.5 ml).
# After cessation of the effect of drug injection, the height of the peaks was compared with that previously recorded after the intravenous administration of vehicle alone.
# [3] = test system: rhythmic bladder voiding contractions; conditions: urethane-anesthetized rats; background statement; cited from earlier work
# [4] = i.v., urethane-anesthetized rats
Ki [1],Structure (SMILES),Bladder Quiescence (disappearance time of contractions) ([2]; 100 μg/kg i.v.),Bladder Quiescence (disappearance time of contractions) ([2]; 1000 μg/kg i.v.),Bladder Quiescence (disappearance time of contractions) ([2]; 3000 μg/kg i.v.),other results
0.86 nM,"O=C(C1CCCCC1)N(CCN1CCN(c2ccccc2OC(F)(F)F)CC1)c1ccccn1 [Ex. 1, 1-[N-cyclohexylcarbonyl-N-(2-pyridyl)-2-aminoethyl]-4-(2-trifluoromethoxyphenyl)piperazine]",5.85 ± 1.87 min,16.25 ± 1.38 min,18.40 ± 4.12 min,–
0.89 nM,"O=C(C1CCCCC1)N(CCN1CCN(c2ccccc2OCC(F)(F)F)CC1)c1ccccn1 [Ex. 2, 1-[N-cyclohexylcarbonyl-N-(2-pyridyl)-2-aminoethyl]-4-[2-(2,2,2-trifluoroethoxy)phenyl]piperazine]",8.70 ± 2.88 min,27.28 ± 8.70 min,–,Bladder Quiescence (disappearance time of contractions) ([2]; 30 μg/kg i.v.): 3.00 ± 0.91 min
1.51 nM,"O=C(C1CCCCC1)N(CCN1CCN(c2cc(Cl)ccc2OCC(F)(F)F)CC1)c1ccccn1 [Ex. 3, 1-[N-cyclohexylcarbonyl-N-(2-pyridyl)-2-aminoethyl]-4-[5-chloro-2-(2,2,2-trifluoroethoxy)phenyl]piperazine]",6.15 ± 1.19 min,10.13 ± 0.59 min,14.42 ± 2.36 min,Bladder Quiescence (disappearance time of contractions) ([2]; 10 μg/kg i.v.): 3.15 ± 1.74 min
0.31 nM,"N#Cc1ccccc1N1CCN(CCN(C(=O)C2CCCCC2)c2ccccn2)CC1 [Ex. 4, 1-[N-cyclohexylcarbonyl-N-(2-pyridyl)-2-aminoethyl]-4-(2-cyanophenyl) piperazine]",–,–,–,–
14.3 nM,"COc1cc(N)ccc1N1CCN(CCN(C(=O)C2CCCCC2)c2ccccn2)CC1 [Ex. 6, 1-[N-cyclohexylcarbonyl-N-(2-pyridyl)-2-aminoethyl]-4-(4-amino-2-methoxyphenyl)piperazine]",9.82 ± 1.18 min,15.00 ± 3.11 min,–,Bladder Quiescence (disappearance time of contractions) ([2]; 10 μg/kg i.v.): 6.75 ± 1.66 min
8.15 nM,"COc1cc(NC(C)=O)ccc1N1CCN(CCN(C(=O)C2CCCCC2)c2ccccn2)CC1 [Ex. 7, 1-[N-cyclohexylcarbonyl-N-(2-pyridyl)-2-aminoethyl]-4-(4-acetylamino-2-methoxyphenyl)piperazine]",7.97 ± 1.78 min,20.63 ± 3.31 min,–,Bladder Quiescence (disappearance time of contractions) ([2]; 300 μg/kg i.v.): 8.65 ± 1.81 min
–,"COc1cc(NS(C)(=O)=O)ccc1N1CCN(CCN(C(=O)C2CCCCC2)c2ccccn2)CC1 [Ex. 8, 1-[N-cyclohexylcarbonyl-N-(2-pyridyl)-2-aminoethyl]-4-(4-methanesulfonylamino-2-methoxyphenyl)piperazine]",2.03 ± 0.44 min,7.20 ± 1.07 min,14.20 ± 2.57 min,–
0.45 nM,"O=C(C1CCCCC1)N(CCN1CCN(c2cc(Cl)ccc2Cl)CC1)c1ccccn1 [Ex. 10, 1-[N-cyclohexylcarbonyl-N-(2-pyridyl)-2-aminoethyl]-4-(2,5-dichlorophenyl)piperazine]",–,–,–,–
0.12 nM,"O=C(C1CCCCC1)N(CCN1CCN(Cc2cc(Cl)ccc2Cl)CC1)c1ccccn1 [Ex. 14, 1-[N-cyclohexylcarbonyl-N-(2-pyridyl)-2-aminoethyl]-4-(2,5-dichlorobenzyl)piperazine]",10.12 ± 1.98 min,–,–,Bladder Quiescence (disappearance time of contractions) ([2]; 30 μg/kg i.v.): 2.80 ± 1.31 min; Bladder Quiescence (disappearance time of contractions) ([2]; 300 μg/kg i.v.): 21.52 ± 4.66 min
–,"Cc1c(-c2ccccc2)oc2c(C(=O)OCCN3CCCCC3)cccc2c1=O [Flavoxate, reference compound]",–,3.04 ± 0.96 min,5.30 ± 1.00 min,Bladder Quiescence (disappearance time of contractions) ([2]; 10000 μg/kg i.v.): 8.25 ± 1.90 min
–,"CCN(CC)CC#CCOC(=O)C(O)(c1ccccc1)C1CCCCC1 (centres unmarked) [Oxybutynin, reference compound]",0.92 ± 0.15 min,2.80 ± 0.60 min,6.27 ± 2.90 min,"Bladder Quiescence (disappearance time of contractions) ([2]; 300 μg/kg i.v.): 2.87 ± 1.12 min; ED50 ([2]; Rattus norvegicus, iv, read-out: ED50 value (extrapolated dose inducing a 30% reduction of amplitude of the contractions in 50% of treated rats)): 240 mg/kg; Duration of bladder quiescence / cessation of bladder contractions (in words) [2, 4]: does not cause cessation of bladder contractions; Effect on amplitude of bladder contractions (in words) [2, 4]: only decreased the amplitude of the contractions in a dose-related manner; Effect on bladder voiding contractions in this model system (background, in words) [3]: lower the amplitude of the bladder contractions"
